From patent US20240174662A1, “SMALL MOLECULE INHIBITORS OF SALT INDUCIBLE KINASES” (Janssen Biotech, Inc., priority 2021, published 2024)

Molecular target: SIK2 (Homo sapiens (Human), UniProt Q9H0K1)
Assay: SIK2 Enzymatic Assay Version 2 (High ATP)
Assay type: biochemical
Conditions: 3 mM ATP and 200 μM HDAC5tide final, ADP-Glo Max luminescence
Method: All steps were performed at room temperature. Compounds were pre-plated onto an assay plate using an Echo acoustic dispenser (Labcyte, […] or […]) at 80 nL per well. Enzyme prepared in assay buffer at 6 nM (2× final concentration) was added at 4 μL per well using the Multidrop Combi (Thermo Fisher-used for all additions in this assay) to the assay plate, spun for 1 min at 1000 rpm (Allegra 6KR Beckman Coulter centrifuge), and incubated with compound for 30 minutes. […] ADP-Glo Max Reagent (prepared and aliquoted as per manufacturer instructions) was then added at 8 μL per well, spun and incubated for 2 hours. ADP-Glo Max Detection (prepared and aliquoted as per manufacturer instructions) was added at 8 μL per well to the assay plate, which was spun and incubated for 1 hour. The plate was then read on the Pherastar (BMG Labtech) using a luminescence read. Gain was set between 2200-2500.

SIK2, sequence (Q9H0K1 whole entry, species assumed): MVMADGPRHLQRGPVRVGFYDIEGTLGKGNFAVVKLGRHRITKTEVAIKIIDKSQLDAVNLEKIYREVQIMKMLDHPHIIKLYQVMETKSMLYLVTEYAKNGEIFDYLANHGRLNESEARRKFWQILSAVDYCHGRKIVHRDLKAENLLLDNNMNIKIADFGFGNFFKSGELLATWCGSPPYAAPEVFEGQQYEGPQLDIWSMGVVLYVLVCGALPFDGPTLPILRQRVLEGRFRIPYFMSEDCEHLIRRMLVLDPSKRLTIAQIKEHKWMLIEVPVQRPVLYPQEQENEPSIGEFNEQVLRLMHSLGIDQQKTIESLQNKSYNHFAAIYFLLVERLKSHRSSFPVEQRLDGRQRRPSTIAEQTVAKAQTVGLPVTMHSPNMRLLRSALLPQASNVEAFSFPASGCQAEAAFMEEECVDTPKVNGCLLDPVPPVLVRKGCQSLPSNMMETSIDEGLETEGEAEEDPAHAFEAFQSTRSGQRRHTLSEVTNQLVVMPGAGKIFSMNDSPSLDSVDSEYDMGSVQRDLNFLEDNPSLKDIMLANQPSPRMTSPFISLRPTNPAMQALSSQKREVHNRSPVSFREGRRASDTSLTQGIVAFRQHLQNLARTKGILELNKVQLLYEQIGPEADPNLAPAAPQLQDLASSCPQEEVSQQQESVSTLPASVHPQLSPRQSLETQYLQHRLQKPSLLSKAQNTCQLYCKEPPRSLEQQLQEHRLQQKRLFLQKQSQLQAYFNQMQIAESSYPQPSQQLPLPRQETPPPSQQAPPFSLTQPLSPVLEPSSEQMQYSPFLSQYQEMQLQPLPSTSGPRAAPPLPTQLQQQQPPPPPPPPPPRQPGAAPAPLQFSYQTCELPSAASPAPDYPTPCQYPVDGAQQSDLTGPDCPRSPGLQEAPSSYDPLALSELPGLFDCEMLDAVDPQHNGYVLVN

IC50 [nM]	SMILES
12	Cn1ncc(CO[C@@H]2CNCC2(F)F)c1-c1ccn2nc(NC(=O)C3CC3)cc2c1 (single isomer, unassigned) [Example 189, (*R)—N-[5-[4-[(4,4-difluoropyrrolidin-3-yl)oxymethyl]-2-methyl-pyrazol-3-yl]pyrazolo[1,5-a]pyridin-2-yl]cyclopropanecarboxamide]
4.7	C[C@H]1CNC[C@H]1OCc1cnn(C)c1-c1ccn2nc(NC(=O)C3CC3)cc2c1 (single isomer, unassigned) [Example 194, (3*S,4*S)—N-[5-[2-methyl-4-[(4-methylpyrrolidin-3-yl)oxymethyl]pyrazol-3-yl]pyrazolo[1,5-a]pyridin-2-yl]cyclopropanecarboxamide]
3.5	C[C@H]1CN(C)C[C@H]1OCc1cnn(C)c1-c1ccn2nc(NC(=O)C3CC3)cc2c1 (single isomer, unassigned) [Example 195, (3*S,4*S)—N-[5-[4-[(1,4-dimethylpyrrolidin-3-yl)oxymethyl]-2-methyl-pyrazol-3-yl]pyrazolo[1,5-a]pyridin-2-yl]cyclopropanecarboxamide]
24.7	C[C@@H]1CNC[C@@H]1OCc1cnn(C)c1-c1ccn2nc(NC(=O)C3CC3)cc2c1 (single isomer, unassigned) [Example 196, (3*R, 4*R)—N-[5-[2-methyl-4-[(4-methylpyrrolidin-3-yl)oxymethyl]pyrazol-3-yl]pyrazolo[1,5-a]pyridin-2-yl]cyclopropanecarboxamide]
28.1	C[C@@H]1CN(C)C[C@@H]1OCc1cnn(C)c1-c1ccn2nc(NC(=O)C3CC3)cc2c1 (single isomer, unassigned) [Example 197, (3*R, 4*R)—N-[5-[4-[(1,4-dimethylpyrrolidin-3-yl)oxymethyl]-2-methyl-pyrazol-3-yl]pyrazolo[1,5-a]pyridin-2-yl]cyclopropanecarboxamide]
12.3	COC1CNC[C@@H]1Oc1noc(C)c1-c1ccn2nc(NC(=O)C3CC3)cc2c1 (single isomer, unassigned) [Example 202, N-(5-(3-(((3*S,4*R)-4-methoxypyrrolidin-3-yl)oxy)-5-methylisoxazol-4-yl)pyrazolo[1,5-a]pyridin-2-yl)cyclopropanecarboxamide]
14.9	CO[C@@]1(COc2noc(C)c2-c2ccn3nc(NC(=O)C4CC4)cc3c2)CCNC1 (single isomer, unassigned) [Example 209, (*S)—N-(5-(3-((3-methoxypyrrolidin-3-yl)methoxy)-5-methylisoxazol-4-yl)pyrazolo[1,5-a]pyridin-2-yl)cyclopropanecarboxamide]
7.5	Cc1onc(O[C@H]2CNCC2F)c1-c1ccn2nc(NC(=O)C3CC3)cc2c1 (single isomer, unassigned) [Example 210, N-(5-(3-(((3*S,4*R)-4-fluoropyrrolidin-3-yl)oxy)-5-methylisoxazol-4-yl)pyrazolo[1,5-a]pyridin-2-yl)cyclopropanecarboxamide]
27.5	Cc1onc(O[C@@H]2CCNC[C@@H]2F)c1-c1ccn2nc(NC(=O)C3CC3)cc2c1 (single isomer, unassigned) [Example 215, N-(5-(3-(((3*S,4*R)-3-fluoropiperidin-4-yl)oxy)-5-methylisoxazol-4-yl)pyrazolo[1,5-a]pyridin-2-yl)cyclopropanecarboxamide]
29.6	Cc1onc(O[C@@H]2CCNC[C@H]2F)c1-c1ccn2nc(NC(=O)C3CC3)cc2c1 (single isomer, unassigned) [Example 216, N-(5-(3-(((3*R,4*S)-3-fluoropiperidin-4-yl)oxy)-5-methylisoxazol-4-yl)pyrazolo[1,5-a]pyridin-2-yl)cyclopropanecarboxamide]
24.1	Cc1onc(O[C@H]2C[C@@H]3C[C@H]2CN3)c1-c1ccn2nc(NC(=O)C3CC3)cc2c1 (single isomer, unassigned) [Example 217, N-(5-(3-(((1*S,4*S,5*R)-2-azabicyclo[2.2.1]heptan-5-yl)oxy)-5-methylisoxazol-4-yl)pyrazolo[1,5-a]pyridin-2-yl)cyclopropanecarboxamide]
49.5	Cc1onc(O[C@@H]2CCNC3(CCC3)C2)c1-c1ccn2nc(NC(=O)C3CC3)cc2c1 (single isomer, unassigned) [Example 218, (*R)—N-[5-[3-(9-azaspiro[3.5]nonan-6-yloxy)-5-methyl-isoxazol-4-yl]pyrazolo[1,5-a]pyridin-2-yl]cyclopropanecarboxamide]
44.3	Cc1onc(O[C@@H]2CCN(C)C3(CCC3)C2)c1-c1ccn2nc(NC(=O)C3CC3)cc2c1 (single isomer, unassigned) [Example 219, (*R)—N-[5-[5-methyl-3-[(9-methyl-9-azaspiro[3.5]nonan-6-yl)oxy]isoxazol-4-yl]pyrazolo[1,5-a]pyridin-2-yl]cyclopropanecarboxamide]
16.4	Cc1onc(O[C@H]2CN[C@H]3CCCO[C@H]32)c1-c1ccn2nc(NC(=O)C3CC3)cc2c1 (single isomer, unassigned) [Example 228, N-(5-(5-methyl-3-(((3*S,3a*R,7a*S)-octahydropyrano[3,2-b]pyrrol-3-yl)oxy)isoxazol-4-yl)pyrazolo[1,5-a]pyridin-2-yl)cyclopropanecarboxamide]
34.8	C[C@@H]1CNC[C@@H]1Oc1cnn(C)c1-c1ccn2nc(NC(=O)C3CC3)cc2c1 (single isomer, unassigned) [Example 238, (3*R, 4*R)—N-[5-[2-methyl-4-(4-methylpyrrolidin-3-yl)oxy-pyrazol-3-yl]pyrazolo[1,5-a]pyridin-2-yl]cyclopropanecarboxamide]
5.5	CO[C@]1(COc2cnn(C(F)F)c2-c2ccn3nc(Nc4cc(C)nc(C)n4)cc3c2)CCNC1 (single isomer, unassigned) [Example 261, (*R)-5-(1-(difluoromethyl)-4-((3-methoxypyrrolidin-3-yl)methoxy)-1H-pyrazol-5-yl)-N-(2,6-dimethylpyrimidin-4-yl)pyrazolo[1,5-a]pyridin-2-amine]
4.7	Cc1cc(Nc2cc3cc(-c4c(OC[C@@]5(F)CCNC5)cnn4C(F)F)ccn3n2)nc(C)n1 (single isomer, unassigned) [Example 262, (*R)-5-(1-(difluoromethyl)-4-((3-fluoropyrrolidin-3-yl)methoxy)-1H-pyrazol-5-yl)-N-(2,6-dimethylpyrimidin-4-yl)pyrazolo[1,5-a]pyridin-2-amine]
40.2	Cc1cc(Nc2cc3cc(-c4c(OC[C@]5(F)CCNC5)cnn4C(F)F)ccn3n2)nc(C)n1 (single isomer, unassigned) [Example 263, (*S)-5-(1-(difluoromethyl)-4-((3-fluoropyrrolidin-3-yl)methoxy)-1H-pyrazol-5-yl)-N-(2,6-dimethylpyrimidin-4-yl)pyrazolo[1,5-a]pyridin-2-amine]
31.1	Cc1cc(Nc2cc3cc(-c4c(OC[C@H]5COC6(CCCC6)O5)cnn4C)ccn3n2)nc(C)n1 (single isomer, unassigned) [Example 299, (*S)—N-(2,6-dimethylpyrimidin-4-yl)-5-[4-(6,9-dioxaspiro[4.4]nonan-8-ylmethoxy)-2-methyl-pyrazol-3-yl]pyrazolo[1,5-a]pyridin-2-amine]
45.7	Cc1cc(Nc2cc3cc(-c4c(OC[C@](C)(O)C5CC5)cnn4C)ccn3n2)nc(C)n1 (single isomer, unassigned) [Example 304, (*S)-2-cyclopropyl-1-[5-[2-[(2,6-dimethylpyrimidin-4-yl)amino]pyrazolo[1,5-a]pyridin-5-yl]-1-methyl-pyrazol-4-yl]oxy-propan-2-ol]
30.9	Cc1cc(Nc2cc3cc(-c4c(OC[C@@H]5COC(C)(C)C5)cnn4C)ccn3n2)nc(C)n1 (single isomer, unassigned) [Example 307, (*R)—N-(2,6-dimethylpyrimidin-4-yl)-5-[4-[(5,5-dimethyltetrahydrofuran-3-yl)methoxy]-2-methyl-pyrazol-3-yl]pyrazolo[1,5-a]pyridin-2-amine]
54.4	C[C@H]1[C@H](COc2cnn(C)c2-c2ccn3nc(NC(=O)C4CC4)cc3c2)CN1C (single isomer, unassigned) [Example 337, (2*S, 3*R)—N-[5-[4-[(1,2-dimethylazetidin-3-yl)methoxy]-2-methyl-pyrazol-3-yl]pyrazolo[1,5-a]pyridin-2-yl]cyclopropanecarboxamide]
66.8	Cc1cc(Nc2cc3cc(-c4c(O[C@H]5C[C@H]6CC[C@@H]5O6)cnn4C)ccn3n2)nc(C)n1 (single isomer, unassigned) [Example 352, (1*S, 2*S, 4*R)—N-(2,6-dimethylpyrimidin-4-yl)-5-[2-methyl-4-(7-oxabicyclo[2.2.1]heptan-3-yloxy)pyrazol-3-yl]pyrazolo[1,5-a]pyridin-2-amine]
59.1	Cc1cc(Nc2cc3cc(-c4c(OC[C@H](O)C5(C)CC5)cnn4C)ccn3n2)nc(C)n1 (single isomer, unassigned) [Example 356, (1*R)-2-[5-[2-[(2,6-dimethylpyrimidin-4-yl)amino]pyrazolo[1,5-a]pyridin-5-yl]-1-methyl-pyrazol-4-yl]oxy-1-(1-methylcyclopropyl)ethanol]
61.9	Cc1cc(Nc2cc3cc(-c4c(OC[C@@H](O)C5(C)CC5)cnn4C)ccn3n2)nc(C)n1 (single isomer, unassigned) [Example 357, *S-1-methylcyclopropyl-2-[5-[2-[(2,6-dimethylpyrimidin-4-yl)amino]pyrazolo[1,5-a]pyridin-5-yl]-1-methyl-pyrazol-4-yl]oxy-ethanol]
